Results published in patent US9880171B2, “iASPP phosphorylation and metastatic potential” (LUDWIG INSTITUTE FOR CANCER RESEARCH LTD., priority 2012, dated 2018).

Columns and labels:
Format in all cases: cell-based, human
[1] = system: slow-migrating iASPP in H1299 cells; assay: induction of slow-migrating iASPP by chemotherapeutic agents in H1299 cells (WB); settings: H1299, overnight treatment (oxidative stress inducers 1-3 h; EDTA 4 mM 1 hour), antibody LX49.3
Protocol: FIG. 3. […] H1299 cells were treated overnight with the indicated concentrations of mitosis-arrest drugs nocodazole, colchicine and taxol, DNA damaging drugs, or oxidative stress inducers (1-3 h). Total lysate was prepared in UREA buffer, and iASPP expression patterns were determined using antibody LX49.3. […] Mitotic-arrest drugs were applied to H1299 cells to induce iASPP mobility shift. Floating and adherent cells were collected, and iASPP expression pattern was determined by western blotting (WB). C. […] Left panel, cells in mitosis (floating) and interphase (adherent) were collected by mitotic shake-off, and iASPP expression pattern was determined by WB. Right panel, H1299 cells after Taxol treatment, or mitotic shake-off were immunofluorescence stained using antibody LX49.3. In mitotic shake-off experiment, mitotic shake-off cells were cytospun to slides; the remaining adherent cells after shaking were scraped off and used as interphase control. […] Melanoma cells were treated with nocodazole overnight and iASPP expression patterns from total cell lysate was determined by WB.
FIG. 4. A. Floating and adherent H1299 cells separately collected by mitotic shake-off (FIG. 3C) were stained with propidium iodide (PI), followed by FACS analysis. […] B. H1299 cells were subjected to treatment of 10 μM nocodazole for 24 hours (Nocodazole), on ice for 30 minutes (Cold shock), or 4 mM EDTA for 1 hour (EDTA). Left panel: iASPP expression pattern was analysed by immunoblotting. Right panel: phase contrast images were taken before collection of the cells for WB analysis. Bar=20 μm.
For WB, cells were lysed in buffer containing 8 M urea, 1 M thiourea, 0.5% CHAPS, 50 mM DTT, and 24 mM spermine. A total of 40 μg of protein extract was loaded per lane into SDS-polyacrylamide gels. Gels were transferred onto nitrocellulose membrane (Protran) and the resulting blots incubated first with primary antibody overnight at 4° C. and then with the appropriate secondary horseradish peroxidize-conjugated antibody (Dako). The results were visualized by enhanced chemiluminescent detection (Amersham Biosciences) using X-ray film (Fujifilm). For cell lysate immunoprecipitation, cells were dissolved in NP40 buffer (50 mM Tris-HCl pH 8.0, 150 mM NaCl, 1% NP-40) with protease inhibitor cocktail mix (Roche Diagnostics). Cells were further thoroughly broken by ultrasonication, followed by spinning for 1 hour. Achieved suspension was adjusted to 1-2 mg/ml using NP40 buffer and incubated with 20 μl nickel beads, glutathione beads, or protein A beads (with 2 μg required antibody) for 2 h at room temperature. The beads were washed for four times with NP40 buffer, boiled for 5 min in Laemmli sample buffer, and applied for Western blotting. For pure protein immunoprecipitation, 5-10 μg purified proteins were mixed in NP40 buffer with 1 mg/ml BSA for 2 h at room temperature.
As mitotic cells often detach from the tissue culture dish, floating cells were separated from adherent cells after the treatment of Nocodozole, Taxol and Colchicine.

[2] = system: iASPP modification in H1299 cells; assay: nocodazole-induced iASPP modification in H1299 cells, G2/M kinase inhibitor panel (immunoblotting); settings: 2-10 μM, 10 μM nocodazole overnight
Protocol: FIG. 12. […] FIG. 12A. […] FIG. 12B. […] FIG. 12C.
FIG. 13. FIG. 13A. […] FIG. 13B.
FIG. 20. […] FIG. 20A. […] Bar=20 μm.
For WB, cells were lysed in buffer containing 8 M urea, 1 M thiourea, 0.5% CHAPS, 50 mM DTT, and 24 mM spermine. A total of 40 μg of protein extract was loaded per lane into SDS-polyacrylamide gels. Gels were transferred onto nitrocellulose membrane (Protran) and the resulting blots incubated first with primary antibody overnight at 4° C. and then with the appropriate secondary horseradish peroxidize-conjugated antibody (Dako). The results were visualized by enhanced chemiluminescent detection (Amersham Biosciences) using X-ray film (Fujifilm).

[3] = system: nuclear entry of FITC labeled iASPP(625-828); assay: in vitro nuclear import assay in digitonin permeabilized H1299 cells; settings: for nuclear entry of FITC labeled iASPP(625-828): pre-incubation with 0-1 mg/ml non-labeled protein, 2 hours
Protocol: FIG. 7. S84/S113 phosphorylation of iASPP prevents N- and C-terminal self-interaction and promotes iASPP nuclear localization. A. N- and C-terminal iASPP self-interacts, and iASPP(1-240 of SEQ ID NO: 2)S84D/S113D fails to interact with C-terminal iASPP in vitro. Upper panel: 10 μg/ml purified GST-tagged iASPP (1-240 of SEQ ID NO: 2) or iASPP (249-482 of SEQ ID NO: 2) were incubated with 10 μg/ml purified 6*His-tagged iASPP (625-828 of SEQ ID NO: 2) or ASPP2 (905-1128 of SEQ ID NO: 2) in NP40 buffer for 2 hours. iASPP (1-240 of SEQ ID NO: 2) and iASPP (249-482 of SEQ ID NO: 2) were pulled down by glutathione beads. Bound iASPP (625-828 of SEQ ID NO: 2) and ASPP2 (905-1128 of SEQ ID NO: 2) were determined using anti-His antibodies. Lower panel: 10 μg/ml purified iASPP (1-240 of SEQ ID BO: 2)-GST mutants were incubated with 10 μg/ml mixture of iASPP (625-828 of SEQ ID NO: 2)-His and ASPP2 (905-1128 of SEQ ID NO: 2)-His in NP40 buffer for 2 hours. Interaction was determined as above. […] Cells were suspended in NP40 buffer, and interactions between overexpressed iASPP(1-478 of SEQ ID NO: 2)-V5 and purified iASPP(625-828 of SEQ ID NO: 2)-His were determined by co-immunoprecipitation. […] Cells were suspended in NP40 buffer, and interaction between endogenous iASPP and iASPP (1-240 of SEQ ID NO: 2)-GST was determined by co-immunoprecipitation. […] Upper right panel: H1299 cells were treated with or without nocodazole and iASPP mobility shift were determined in non-denaturing or denaturing WB. […] After 4 washes, the interaction between them was determined by co-immunoprecipitation using anti-GST and anti-V5 antibodies. […] Nuclear iASPP (625-828 of SEQ ID NO: 2)-FITC was determined by direct FITC fluorescence. iASPP(1-240)S84D/S113D and ASPP2(905-1128 of SEQ ID NO: 2) were used as control. […]
Purified proteins were labeled with FITC according to protocol from protein label kit (F-6434, Invitrogen). […] The cellular localization of the substrate was determined by direct fluorescence observation under confocol microscope. […]

| Molecule | induction of slow-migrating iASPP isoform [1] | other results |
| --- | --- | --- |
| N.N.[Cl][Pt][Cl] [Cisplatin] | did not result in increased slow-migrating iASPP isoform expression | – |
| COc1cc2c(c(OC)c1OC)-c1ccc(OC)c(=O)cc1[C@@H](NC(C)=O)CC2 [Colchicine] | induced | – |
| COc1cccc2c1C(=O)c1c(O)c3c(c(O)c1C2=O)C[C@@](O)(C(=O)CO)C[C@@H]3O[C@H]1C[C@H](N)[C@H](O)[C@H](C)O1 [Doxorubicin] | did not result in increased slow-migrating iASPP isoform expression | – |
| O=C(O)CN(CCN(CC(=O)O)CC(=O)O)CC(=O)O [EDTA] | failed to affect iASPP mobility | – |
| CN[C@@H]1C[C@H]2O[C@@](C)([C@@H]1OC)n1c3ccccc3c3c4c(c5c6ccccc6n2c5c31)C(=O)NC4 [Staurosporine] | did not result in increased slow-migrating iASPP isoform expression | – |
| CC(=O)O[C@H]1C(=O)[C@@]2(C)[C@H]([C@H](OC(=O)c3ccccc3)[C@]3(O)C[C@H](OC(=O)[C@H](O)[C@@H](NC(=O)c4ccccc4)c4ccccc4)C(C)=C1C3(C)C)[C@]1(OC(C)=O)CO[C@@H]1C[C@@H]2O [Taxol] | induced | – |
| OO [hydrogen peroxide] | did not result in increased slow-migrating iASPP isoform expression | – |
| CC[C@H](CO)Nc1nc(NCc2ccccc2)c2ncn(C(C)C)c2n1 [roscovitine] | – | prevention of nocodazole-induced iASPP modification ([2]; panel of 15 G2/M kinase inhibitors): only weakly affected iASPP modification; prevention of nocodazole-induced iASPP modification ([2]; panel of 18 G2/M kinase inhibitors): failed to affect iASPP modification |
| iASPP(1-240): purified recombinant N-terminal iASPP fragment, amino acids 1-240 of SEQ ID NO: 2, GST tag (protein, listed as Homo sapiens, GST tag) MDSEAFQSARDFLDMNFQSLAMKHMDLKQMELDTAAAKVDELTKQLESLWSDSPAPPGPQAGPPSRPPRYSSSSIPEPFGSRGSPRKAATDGADTPFGRSESAPTLHPYSPLSPKGRPSSPRTPLYLQPDAYGSLDRATSPRPRAFDGAGSSLGRAPSPRPGPGPLRQQGPPTPFDFLGRAGSPRGSPLAEGPQAFFPERGPSPRPPATAYDAPASAFGSSLLGSGGSAFAPPLRAQDDL | – | nuclear entry of FITC labeled iASPP(625-828) [3]: effectively prevented the nuclear entry; nuclear entry of ASPP2(905-1128) ([3]; pre-incubation with non-labeled protein): no impact on the nuclear entry of ASPP2(905-1128) |
| iASPP(1-240)S84D/S113D: iASPP phosphor-mimic mutant of the N-terminal fragment 1-240 (protein, listed as Homo sapiens) MDSEAFQSARDFLDMNFQSLAMKHMDLKQMELDTAAAKVDELTKQLESLWSDSPAPPGPQAGPPSRPPRYSSSSIPEPFGSRGDPRKAATDGADTPFGRSESAPTLHPYSPLDPKGRPSSPRTPLYLQPDAYGSLDRATSPRPRAFDGAGSSLGRAPSPRPGPGPLRQQGPPTPFDFLGRAGSPRGSPLAEGPQAFFPERGPSPRPPATAYDAPASAFGSSLLGSGGSAFAPPLRAQDDL | – | nuclear entry of FITC labeled iASPP(625-828) [3]: failed to have any impact |
